Results from ChEMBL document CHEMBL4828719, “H2dpa derivatives containing pentadentate ligands: An acyclic adjuvant potentiates meropenem activity in vitro and in vivo against metallo-β-lactamase-producing Enterobacterales” (Eur J Med Chem, 2021).
Calls of active or inactive are those of the source. The calls are words filed in the database; no cut-off is given here.

Assays:
Escherichia coli [1] = test: Antibacterial activity against IMP-4 producing Escherichia coli DH5 alpha assessed as bacterial growth at 8 ug/ml incubated for 16 to 20 hrs by CLSI based microdilution method; type: functional; conditions: dose 8 µg/ml; time 16-20 hrs
[2] = Zinc chelation-dependent inhibition of NDM-1 (unknown origin) expressed in Escherichia coli BL21 (DE3) using meropenem as substrate preincubated with enzyme for 5 to 10 mins followed by substrate addition
[3] = Zinc chelation-dependent inhibition of VIM-2 (unknown origin) expressed in Escherichia coli BL21 (DE3) using nitrocefin as substrate preincubated with enzyme for 5 to 10 mins followed by substrate addition
Enterobacter cloacae = test: Antibacterial activity against MBL producing Enterobacter cloacae isolates assessed as inhibition of bacterial growth at 64 ug/ml incubated for 16 to 20 hrs by CLSI based microdilution method; type: functional, organism-based; conditions: dose 64.0 µg/ml, time 16-20 hrs
Escherichia coli [4] = test: Antibacterial activity against MBL producing Escherichia coli isolates assessed as inhibition of bacterial growth at 64 ug/ml incubated for 16 to 20 hrs by CLSI based microdilution method; type: functional, organism-based; conditions: dose 64.0 µg/ml, time 16-20 hrs
Klebsiella oxytoca = test: Antibacterial activity against MBL producing Klebsiella oxytoca isolates assessed as inhibition of bacterial growth at 64 ug/ml incubated for 16 to 20 hrs by CLSI based microdilution method; type: functional, organism-based; conditions: dose 64.0 µg/ml, time 16-20 hrs
Citrobacter freundii = test: Antibacterial activity against MBL producing Citrobacter freundii isolates assessed as inhibition of bacterial growth at 64 ug/ml incubated for 16 to 20 hrs by CLSI based microdilution method; type: functional, organism-based; conditions: dose 64.0 µg/ml, time 16-20 hrs
Enterobacter hormaechei = test: Antibacterial activity against MBL producing Enterobacter hormaechei isolates assessed as inhibition of bacterial growth at 64 ug/ml incubated for 16 to 20 hrs by CLSI based microdilution method; type: functional, organism-based; conditions: dose 64.0 µg/ml, time 16-20 hrs
Escherichia coli [5] = test: Antibiotic adjuvant activity against meropenem-treated VIM-1 producing Escherichia coli DH5 alpha assessed as bacterial growth at 8 ug/ml incubated for 16 to 20 hrs in the presence of meropenem and 100 uM zinc sulfate by CLSI based microdilution method; type: functional; conditions: dose 8 µg/ml; time 16-20 hrs
Escherichia coli [6] = test: Antibiotic adjuvant activity against meropenem-treated VIM-1 producing Escherichia coli DH5 alpha assessed as bacterial growth at 8 ug/ml incubated for 16 to 20 hrs in the presence of meropenem by CLSI based microdilution method; type: functional; conditions: dose 8 µg/ml; time 16-20 hrs
[7] = Acute toxicity in BALB/c mouse assessed as pathological changes in liver at 50 mg/kg, ip administered as single dose measured after 24 hrs by hematoxylin and eosin staining based assay; type: organism-based; conditions: in vivo
[8] = Acute toxicity in BALB/c mouse assessed as pathological changes in kidney at 50 mg/kg, ip administered as single dose measured after 24 hrs by hematoxylin and eosin staining based assay; type: organism-based; conditions: in vivo
[9] = Acute toxicity in BALB/c mouse assessed as change in WBC count at 50 mg/kg, ip administered as single dose measured after 24 hrs; type: organism-based; conditions: in vivo
[10] = Acute toxicity in BALB/cmouse assessed as change in hematocrit level at 50 mg/kg, ip administered as single dose measured after 24 hrs; type: organism-based, BALB/c; conditions: mouse, in vivo
[11] = Acute toxicity in BALB/c mouse assessed as change in platelet count at 50 mg/kg, ip administered as single dose measured after 24 hrs; type: organism-based; conditions: in vivo
[12] = Acute toxicity in BALB/c mouse assessed as change in albumin level in serum at 50 mg/kg, ip administered as single dose measured after 24 hrs; type: organism-based; conditions: in vivo
[13] = Acute toxicity in BALB/c mouse assessed as change in urea level in serum at 50 mg/kg, ip administered as single dose measured after 24 hrs; type: organism-based; conditions: in vivo
[14] = Non competitive inhibition of NDM-1 (unknown origin) assessed as inhibition of substrate hydrolysis by measuring decrease in Vmax using meropenem as substrate preincubated with enzyme for 5 mins followed by substrate addition by Lineweaver-Burk plot analysis
[15] = Non competitive inhibition of IMP-1 (unknown origin) assessed as inhibition of substrate hydrolysis by measuring decrease in Vmax using imipenem as substrate preincubated with enzyme for 5 mins followed by substrate addition by Lineweaver-Burk plot analysis
[16] = Non competitive inhibition of VIM-2 (unknown origin) assessed as inhibition of substrate hydrolysis by measuring decrease in Vmax using nitrocefin as substrate preincubated with enzyme for 5 mins followed by substrate addition by Lineweaver-Burk plot analysis
Escherichia coli [17] = test: Antibiotic adjuvant activity against meropenem-treated IMP-4 producing Escherichia coli DH5 alpha assessed as bacterial growth at 8 ug/ml incubated for 16 to 20 hrs in the presence of meropenem by CLSI based microdilution method; type: functional; conditions: dose 8 µg/ml; time 16-20 hrs
Escherichia coli [18] = test: Antibiotic adjuvant activity against meropenem-treated NDM-1 producing Escherichia coli DH5 alpha assessed as bacterial growth at 8 ug/ml incubated for 16 to 20 hrs in the presence of meropenem by CLSI based microdilution method; type: functional; conditions: dose 8 µg/ml; time 16-20 hrs
Escherichia coli [19] = test: Antibiotic adjuvant activity against meropenem-treated NDM-1 producing Escherichia coli DH5 alpha assessed as inhibition of bacterial growth at 8 ug/ml incubated for 16 to 20 hrs in the presence of meropenem and 1 to 10 uM zinc sulfate by CLSI based microdilution method; type: functional, organism-based; conditions: dose 8.0 µg/ml, time 16-20 hrs
Klebsiella pneumoniae [20] = test: Antibiotic adjuvant activity against meropenem-treated NDM-producing carbapenem resistant Klebsiella pneumoniae infected in BALB/c mouse sepsis model assessed as reduction of bacterial load in liver at 10 mg/kg, ip in the presence of meropenem observed for 2 days; type: functional, organism-based; conditions: time 2.0 day
Klebsiella pneumoniae [21] = test: Antibiotic adjuvant activity against meropenem-treated NDM-producing carbapenem resistant Klebsiella pneumoniae infected in BALB/c mouse sepsis model assessed as reduction of bacterial load in spleen at 10 mg/kg, ip in the presence of meropenem observed for 2 days; type: functional, organism-based; conditions: time 2.0 day
Klebsiella pneumoniae [22] = test: Antibacterial activity against NDM-producing carbapenem resistant Klebsiella pneumoniae infected in BALB/c mouse sepsis model assessed as dilated and congested central vein with neutrophil cell infiltration within the red pulp of the spleen at 10 mg/kg, ip observed for 2 days by HE staining based assay; type: functional, organism-based; conditions: time 2.0 day
Escherichia coli [23] = test: Synergistic antibacterial activity against IMP-4 producing Escherichia coli DH5alpha assessed as fractional inhibitory concentration index incubated for 16 to 20 hrs in presence of meropenem by checkerboard assay; type: functional, DH5[alpha]; conditions: time 16-20 hrs
Escherichia coli [24] = test: Synergistic antibacterial activity against VIM-1 producing Escherichia coli DH5alpha assessed as fractional inhibitory concentration index incubated for 16 to 20 hrs in presence of meropenem by checkerboard assay; type: functional, DH5[alpha]; conditions: time 16-20 hrs
Escherichia coli [25] = test: Antibiotic adjuvant activity against IMP-4 producing Escherichia coli DH5alpha assessed as potentiation of meropenem-induced antibacterial activity incubated for 16 to 20 hrs by agar disc diffusion assay; type: functional, organism-based; conditions: DH5[alpha], time 16-20 hrs
Escherichia coli [26] = test: Antibiotic adjuvant activity against NDM-1 producing Escherichia coli DH5alpha assessed as potentiation of meropenem-induced antibacterial activity incubated for 16 to 20 hrs by agar disc diffusion assay; type: functional, organism-based; conditions: DH5[alpha], time 16-20 hrs
Escherichia coli [27] = test: Antibiotic adjuvant activity against NDM-1 producing Escherichia coli DH5alpha assessed as potentiation of meropenem-induced antibacterial activity by measuring meropenem MIC at 16 ug/ml incubated for 16 to 20 hrs by checkerboard assay (reference value: 32 ug/ml); type: functional; conditions: DH5[alpha], dose 16 µg/ml, time 16-20 hrs
Klebsiella pneumoniae [28] = test: Antibiotic adjuvant activity against meropenem-treated NDM-producing carbapenem resistant Klebsiella pneumoniae infected in BALB/c mouse sepsis model assessed as survival rate at 10 mg/kg, ip in the presence of meropenem measured after 7 days; type: functional; conditions: 168 h, time 7 day

C[C@@H](C(=O)O)N(Cc1cccc(C(=O)O)n1)Cc1cccc(C(=O)O)n1
Activity (Escherichia coli [1]): 95%
IC50 [2]: 1.69 µM
IC50 [3]: 1.54 µM
Activity (Enterobacter cloacae): inactive
Activity (Escherichia coli [4]): inactive
Activity (Klebsiella oxytoca): inactive
Activity (Citrobacter freundii): inactive
Activity (Enterobacter hormaechei): inactive
Activity (Escherichia coli [5]): 100%
Activity (Escherichia coli [6]): <10%
Activity [7]: Non-Toxic
Activity [8]: Non-Toxic
Activity [9]: Non-Toxic
Activity [10]: Non-Toxic
Activity [11]: Non-Toxic
Activity [12]: Non-Toxic
Activity [13]: Non-Toxic
Ki [14]: 1.7 µM
Ki [15]: 1.54 µM
Ki [16]: 5.83 µM
Activity (Escherichia coli [17]): <10%
Activity (Escherichia coli [18]): <10%
Activity (Escherichia coli [19]): Active
Activity (Klebsiella pneumoniae [20]): Active
Activity (Klebsiella pneumoniae [21]): Active
Activity (Klebsiella pneumoniae [22]): inactive
fractional inhibitory concentration index (FICI) (Escherichia coli [23]): 0.14
fractional inhibitory concentration index (FICI) (Escherichia coli [24]): 0.07
Activity (Escherichia coli [25]): Active
Activity (Escherichia coli [26]): Active
MIC (Escherichia coli [27]): < 0.0312 µg/mL

C[C@H](C(=O)O)N(Cc1cccc(C(=O)O)n1)Cc1cccc(C(=O)O)n1
survival at 10 mg/kg (Klebsiella pneumoniae [28]): 100%
Activity (Escherichia coli [1]): 95%
IC50 [2]: 1.6 µM
IC50 [3]: 1.56 µM
Activity (Enterobacter cloacae): inactive
Activity (Escherichia coli [4]): inactive
Activity (Klebsiella oxytoca): inactive
Activity (Citrobacter freundii): inactive
Activity (Enterobacter hormaechei): inactive
Activity (Escherichia coli [5]): 100%
Activity (Escherichia coli [6]): <10%
Activity [7]: Non-Toxic
Activity [8]: Non-Toxic
Activity [9]: Non-Toxic
Activity [10]: Non-Toxic
Activity [11]: Non-Toxic
Activity [12]: Non-Toxic
Activity [13]: Non-Toxic
Ki [14]: 1.59 µM
Ki [15]: 1.57 µM
Ki [16]: 6.16 µM
Activity (Escherichia coli [17]): <10%
Activity (Escherichia coli [18]): <10%
Activity (Escherichia coli [19]): Active
Activity (Klebsiella pneumoniae [20]): Active
Activity (Klebsiella pneumoniae [21]): Active
Activity (Klebsiella pneumoniae [22]): inactive
fractional inhibitory concentration index (FICI) (Escherichia coli [23]): 0.14
fractional inhibitory concentration index (FICI) (Escherichia coli [24]): 0.07
Activity (Escherichia coli [25]): Active
Activity (Escherichia coli [26]): Active
MIC (Escherichia coli [27]): < 0.0312 µg/mL
